Test results taken from the supplement of paper PMC10307832.

Tests used:
Test in all cases: relative viability (nuclei count vs DMSO), 5 days (fraction); higher = more cells survive
[1] = compound: CN[C@@H]1C[C@H]2O[C@@](C)([C@@H]1OC)n1c3ccccc3c3c4c(c5c6ccccc6n2c5c31)C(=O)NC4 [Staurosporine] + Cc1nc(NC(=O)N2CCC[C@H]2C(N)=O)sc1-c1ccnc(C(C)(C)C(F)(F)F)c1 [Alpelisib] (partner 2 µM)
Summary of the method: (§1)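 Cells from lung cancer lines were seeded into 1536-well plates and, one day later, dosed by pin tool. Treatments were either a single drug or a fixed dose of an anchor drug with five library-drug doses (not always all listed) in √10 steps. After 5 days, nuclei were stained in a one-step fixation (final 0.05% Triton X-100, 1% formaldehyde, 1 ug/ml Hoechst) and counted on 4× images, and relative viability is the treated-to-vehicle nuclei ratio, as the median of duplicate plates.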

[2] = compound: CN[C@@H]1C[C@H]2O[C@@](C)([C@@H]1OC)n1c3ccccc3c3c4c(c5c6ccccc6n2c5c31)C(=O)NC4 [Staurosporine] + Nc1ncn([C@H]2C[C@H](O)[C@@H](CO)O2)c(=O)n1 [Decitabine] (partner 2 µM)
Summary of the method: as §1

[3] = compound: O=c1[nH]cc(F)c(=O)[nH]1 [5-Fluorouracil] + CC(=O)c1c(C)c2cnc(Nc3ccc(N4CCNCC4)cn3)nc2n(C2CCCC2)c1=O [Palbociclib] (partner 0.5 µM)
Summary of the method: as §1

[4] = compound: O=c1[nH]cc(F)c(=O)[nH]1 [5-Fluorouracil] + O=C(CCCCCCC(=O)Nc1ccccc1)NO [Vorinostat] (partner 1 µM)
Summary of the method: as §1

Cell Line	relative viability ([1]; first compound 0.005 µM)	relative viability ([1]; first compound 0.01581 µM)	relative viability ([1]; first compound 0.05 µM)	relative viability ([1]; first compound 0.1581 µM)	relative viability ([1]; first compound 0.5 µM)	relative viability ([2]; first compound 0.005 µM)	relative viability ([2]; first compound 0.01581 µM)	relative viability ([2]; first compound 0.05 µM)	relative viability ([2]; first compound 0.1581 µM)	relative viability ([2]; first compound 0.5 µM)	relative viability ([3]; first compound 0.02 µM)	relative viability ([3]; first compound 0.2 µM)	relative viability ([3]; first compound 0.6325 µM)	relative viability ([3]; first compound 2 µM)	relative viability ([4]; first compound 0.02 µM)	relative viability ([4]; first compound 0.2 µM)	relative viability ([4]; first compound 0.6325 µM)	relative viability ([4]; first compound 2 µM)
HARA	0.532	0.173	0.142	0.0954	0.0999	0.479	0.334	0.249	0.15	0.179	0.305	0.261	0.267	0.286	0.517	0.39	0.281	0.16
NCI-H1944	0.953	–	0.483	0.384	0.341	0.41	0.354	0.401	0.326	0.278	0.306	0.319	0.252	0.214	0.5	0.372	0.201	0.164
NCI-H2405	0.185	0.131	0.101	0.075	0.0622	0.516	0.161	0.119	0.107	0.0998	0.541	0.579	0.529	0.48	1.02	1.14	0.931	0.522
201T	1.03	0.973	0.874	0.715	0.59	0.884	–	0.787	0.649	0.672	0.376	0.347	0.294	0.256	1.04	0.54	0.287	0.228
RERF-LC-KJ	0.916	0.637	0.392	0.282	0.21	0.647	0.397	0.275	0.23	0.201	1.06	0.991	0.891	0.677	0.741	0.736	0.725	0.56
NCI-H1734	0.635	0.344	0.239	0.202	0.149	0.495	0.353	0.215	0.147	0.122	0.349	0.346	0.271	0.264	0.807	0.835	0.685	0.464
PC-14	0.693	0.452	0.172	0.0738	0.0496	0.22	0.137	0.0771	0.0491	0.0544	0.585	0.504	0.435	0.311	0.82	0.635	0.623	0.355
NCI-H1915	1.11	–	0.587	0.445	0.357	0.268	0.227	0.186	0.126	0.0975	0.485	0.522	0.498	0.383	0.404	0.493	0.587	0.407
COR-L23	0.204	0.226	0.143	0.0629	0.0497	0.362	0.248	0.193	0.092	0.0806	0.288	0.315	0.206	0.144	0.455	0.372	0.239	0.159
HOP-62	1.25	0.816	0.115	0.0862	0.138	0.219	0.289	0.19	0.131	0.126	0.409	0.573	0.404	0.439	0.629	0.699	0.626	0.509
NCI-H1975	0.238	0.201	0.15	0.108	0.104	0.255	0.206	0.184	0.15	0.131	0.671	0.768	0.355	0.189	0.748	0.457	0.302	0.215
BEN	1.26	–	0.615	0.497	0.286	0.882	0.621	0.486	0.279	0.311	0.443	0.433	0.472	0.449	0.566	0.641	0.579	0.633
NCI-H1437	0.918	0.663	0.487	0.413	0.242	0.639	0.442	0.439	0.248	0.15	0.306	0.221	0.161	0.225	0.441	0.301	0.252	0.253
EMC-BAC-2	0.34	0.23	0.0952	0.131	0.108	0.554	0.269	0.222	0.214	0.208	0.52	0.532	0.501	0.518	0.448	0.566	0.463	0.226
SW 1573	0.45	0.299	0.144	0.14	0.148	0.227	0.15	0.135	0.0749	0.067	0.398	0.353	0.29	0.236	0.873	0.843	0.778	0.466
NCI-H661	0.651	0.313	0.303	0.283	0.251	0.555	0.484	0.436	0.267	0.186	0.407	0.436	0.425	0.419	0.835	0.818	0.786	0.809
LXF-289	0.902	–	0.197	0.0563	0.0673	0.445	0.266	0.31	0.18	0.206	0.596	0.578	0.312	0.283	0.708	0.67	0.383	0.309
LOU-NH91	0.718	0.575	0.457	0.304	0.305	0.788	0.607	0.624	0.4	0.314	0.545	0.536	0.541	0.399	0.937	0.988	0.607	0.35
NCI-H2347	1.03	0.67	0.34	0.364	–	0.527	0.406	0.384	0.309	0.323	0.455	0.381	0.395	0.326	0.64	0.41	0.41	0.431
NCI-H2009	0.864	0.276	0.267	0.173	0.141	0.331	0.272	0.196	0.172	0.0871	0.196	0.229	0.169	0.213	0.75	0.825	0.753	0.396
HCC-827	1.1	0.852	0.748	–	0.431	0.34	0.274	0.288	0.211	0.189	0.46	0.455	0.231	0.255	0.556	0.697	0.348	0.272
NCI-H727	0.27	0.291	0.212	0.234	0.148	0.859	0.587	0.432	0.393	0.316	0.839	0.685	0.745	0.607	0.953	1.14	1	0.902
PC-3 [JPC-3]	1.05	–	0.638	0.508	0.39	0.883	0.586	0.55	0.422	0.349	0.562	0.582	0.576	0.509	0.752	0.825	0.871	0.522
NCI-H23	0.437	0.317	0.218	0.206	0.131	0.309	0.213	0.203	0.163	0.161	0.527	0.551	0.325	0.245	0.512	0.582	0.307	0.21
NCI-H838	0.274	0.208	0.19	0.246	0.114	0.368	0.271	0.181	0.139	0.141	0.196	0.223	0.19	0.174	0.716	0.637	0.404	0.266
HCC-366	0.363	–	0.0965	0.0438	0.0105	0.348	–	0.116	0.0285	0.0403	0.404	0.332	0.154	0.0646	0.371	0.365	0.156	0.0639
NCI-H1666	0.582	0.371	0.375	0.177	0.175	0.685	0.522	0.559	0.476	0.454	0.677	0.642	0.647	0.609	0.981	0.649	0.577	0.563
HCC-44	0.441	0.167	0.106	0.11	0.0846	0.937	–	0.661	0.302	0.275	0.971	0.929	0.823	0.619	1.09	1.07	0.824	0.544
A-427	1.03	0.889	0.374	0.25	0.143	0.573	0.448	0.282	0.18	0.149	0.529	0.518	0.49	0.364	0.812	0.921	0.783	0.419
NCI-H460	0.367	0.198	0.024	0.0141	0.0076	0.397	0.308	0.175	0.0228	0.0211	0.236	0.167	0.046	0.045	0.903	0.222	0.082	0.0565
